# Results reported in US20260007688A1, “SYNTHETIC ANALOGS OF CANNABINOL (CBN) FOR THE TREATMENT OF AGERELATED NEUROLOGICAL DISORDERS” (priority 2023, published 2026).
# Legend:
# HT22 cells [1] = test: Microscopic imaging of cell morphology after RSL3; type: cell-based, mouse; settings: 5 μM compound + 50 nM RSL3, 16 hours
# Description: Micrographs show the representative morphological characteristics of the cell cultures under a given condition of 8 experimental replicates. Scale bar=200 μm.
# Microscopy. Brightfield, phase contrast, and fluorescence microscopic images were acquired on an IX51 inverted microscope (Olympus Corporation, Tokyo, Japan) with an INFINITY3 monochrome CCD camera (Teledyne Lumenera, Ontario, Canada). Super-resolution microscopic images were acquired on a Zeiss LSM 880 rear port laser scanning confocal and Airyscan FAST microscope (Carl-Zeiss, Oberkochen, Germany). Image processing and analysis were performed with microscope software packages ZEN Black and ImageJ/Fiji.
# HT22 cells [2] = test: Oxytosis assay, glutamate-induced cell death, MTT viability; type: cell-based; settings: Mus musculus, HT-22, 5 mM glutamate, 16 hours
# Protocol: (§1) HT22 mouse hippocampal nerve cells were cultured in high-glucose Dulbecco's modified Eagle's medium (DMEM) (Invitrogen, Cat #11995065, Carlsbad, CA) supplemented with 10% fetal bovine serum (FBS) (Invitrogen, Carlsbad, CA) and 1% antibiotics including penicillin and streptomycin (Invitrogen Cat #10378016, Carlsbad, CA). Cell cultures were incubated at 37° C. in a fully humidified atmosphere containing 10% CO2.
# The assay procedure described in Fischer et al., “Old age-associated phenotypic screening for Alzheimer's disease drug candidates identifies sterubin as a potent neuroprotective compound from Yerba santa” Redox Biol. 21 (2019) 101089 was used. Briefly, HT22 cells were seeded at 3,000 cells/well in 96-well tissue culture plates in DMEM plus 10% FBS and 1% antibiotics. After 24 hours of plating, the cells were pretreated with different concentrations of the test compounds or a vehicle control for 1 hour followed by coincubation with 5 mM glutamate to initiate the cell death cascade. After 16 hours of treatment, cell viability was measured by the 3-(4,5-dimethylthiazol-2-yl)-2,5-diphenyltetrazolium bromide (MTT) assay. Optical absorbance was measured at 570 nm on a SpectraMax M5 microplate reader. Samples were analyzed in eight to sixteen wells per independent experiment (n=8-16). Results are presented as the percentage of the controls with vehicle alone.
# Drosophila melanogaster = test: Drosophila mild traumatic brain injury (mTBI) model; type: in vivo; settings: 3.0 μM in food, 3 weeks after mTBI (10×); vehicle 70.2%
# HT22 cells [3] = test: Mitochondrial reactive oxygen species measurement (MitoSOX Red); type: cell-based, mouse; settings: 5 μM compound + 50 nM RSL3
# Protocol: The assay procedure described in Liang et al. was used. Briefly, HT22 cells were seeded onto 96-well black walled plates at a density of 3,000 cells/well in DMEM supplemented with 10% FBS and 1% antibiotics. After the desired treatments, the mitochondrial superoxide ROS were detected with MitoSOX Red reagent (Ex/Em=510/580 nm). Experiments were performed according to the manufacturer's instructions. Fluorescence was measured on a SpectraMax M5 microplate reader. Data were normalized for total protein/well. Each condition was analyzed in eight wells per independent experiment (n=8). Results are presented as the percentage of the controls with vehicle alone. Results were verified by live-cell imaging under a fluorescence microscope. FIG. 14 provides the results.
# HT22 cells [4] = test: Ferroptosis assay, RSL3-induced cell death, MTT viability; type: cell-based; settings: Mus musculus, HT-22, 50 nM RSL3, 16 hours
# Protocol: as §1
# (§2) The assay procedure described in Fischer et al. was used. Briefly, HT22 cells were seeded at 3,000 cells/well in 96-well tissue culture plates in DMEM plus 10% FBS and 1% antibiotics. After 24 hours of plating, the cells were pretreated with different concentrations of test compounds or a vehicle control for 1 hour followed by coincubation with 50-100 nM RSL3 or 500 nM erastin to induce the cell death cascade. After 16 hours of treatment, cell viability was measured by the MTT assay. Optical absorbance was measured at 570 nm on a SpectraMax M5 microplate reader. Samples were analyzed in eight to sixteen wells per independent experiment (n=8-16). Results are presented as the percentage of the controls with vehicle alone.
# HT22 cells [5] = test: Seahorse XF mitochondrial stress test (OCR); type: cell-based, mouse; settings: 16 hours, compared with the control cells
# HT22 cells [6] = test: Lipid peroxidation measurement (C11-BODIPY); type: cell-based, mouse; settings: compound + RSL3, 16 hours, p<0.0001
# Protocol: The assay procedures were adapted from the procedures disclosed by Soriano-Castell et al., “Profiling the chemical nature of anti-oxytotic/ferroptotic compounds with phenotypic screening” Free Radic. Biol. Med. 177 (2021) 313-325 and Liang et al. “Cannabinol inhibits oxytosis/ferroptosis by directly targeting mitochondria independently of cannabinoid receptors” Free Radic. Biol. Med. 180 (2022) 33-51. Briefly, HT22 cells were seeded onto 96-well black walled plates at a density of 3,000 cells/well in DMEM supplemented with 10% FBS and 1% antibiotics. After the desired treatments for 16 hours, cells were labeled with 2.5 μM C11-BODIPY 581/591 (oxidized form Ex/Em=488/520 nm) at 37° C. for 2 hours. Experiments were performed according to the manufacturer's instructions. Fluorescence was measured on a SpectraMax M5 microplate reader. Data were normalized for total protein/well. Each condition was analyzed in eight wells per independent experiment (n=8). Results were verified by live-cell imaging under a fluorescence microscope.
# MC65 cells = test: Intracellular amyloid toxicity assay; type: cell-based; settings: Homo sapiens, 72 h, APP-C99 induced, day 3, MTT, read-out: Aβ toxicity EC50
# Description: Accumulation of intracellular amyloid beta peptide (Aβ) is considered by many as being a primary toxic event in AD. The human nerve cell line MC65 conditionally expresses the C99 fragment of the amyloid precursor protein (APP) leading to the accumulation of intracellular AB. The MC65 cells are routinely grown in the presence of tetracycline and, following its removal, the expression of C99 is induced and the cells die within three days because of the accumulation of intracellular, toxic protein aggregates.
# For the intracellular amyloid toxicity assay the procedure described in Huang et al., “Intracellular amyloid toxicity induces oxytosis/ferroptosis regulated cell death” Cell Death Dis. 11 (10) (2020) 828 was used. Briefly, MC65 cells were regularly grown in high glucose DMEM supplemented with 10% FCS and 2 μg/ml tetracycline. For the assay, cells were dissociated and plated at 1×10^5 cells per well in 24 well tissue culture plates. After overnight cultivation in growth medium, the cells were washed three times with phosphate buffered saline containing calcium and magnesium and then switched to Opti-minimal essential media (Opti-MEM, Invitrogen) in the presence (no induction) or absence (APP-C99 induced) of 2 μg/ml tetracycline in the presence or absence different concentrations of the indicated compounds. At day 3, the control cells in the absence of tetracycline were dead, and cell viability was determined by the MTT assay. Optical absorbance was measured at 570 nm on a SpectraMax M5 microplate reader. Samples were analyzed in three wells per independent experiment (n=3). Results are presented as EC50.
# HT22 cells [7] = test: Seahorse XF real-time ATP rate assay; type: cell-based, mouse; settings: 5 μM, 16 hours
# Protocol: The assay procedure described in Liang et al., “Cannabinol inhibits oxytosis/ferroptosis by directly targeting mitochondria independently of cannabinoid receptors” Free Radic. Biol. Med. 180 (2022) 33-51 was used. Briefly, ATP production rates were assayed with a XF Real-Time ATP Rate Assay Kit using a Seahorse Xfe96 Extracellular Flux Analyzer (Seahorse Bioscience, North Billerica, MA). Complete Seahorse XF DMEM assay medium was supplemented with 10 mM glucose, 1 mM pyruvate and 2 mM L-glutamine, at pH 7.4. Mitochondrial ETC inhibitors were used at the following concentrations: 1.5 μM oligomycin and 0.5 μM of a 1:1 mixture of rotenone and antimycin A. Analyses were conducted using Wave software and XF Report Generators (Agilent Technologies). The sensor cartridge for the Xfe analyzer was hydrated overnight at 37° C. before the experiment. Data were normalized for total protein/well. Each condition was analyzed in 20-40 wells per independent experiment (n=20-40). FIGS. 12 and 13 provide the results.
# For HT22 cells, 2,000 cells/well were seeded onto the Seahorse Xfe96 plates under normal culture condition as described above. The next day, cells were treated with test compounds at the desired concentrations and incubated for 16 hours. Immediately before the assay, the culture medium in the plates was replaced with complete Seahorse XF DMEM assay medium. […]
# HT22 cells [8] = test: Ferroptosis assay, erastin-induced cell death, MTT viability; type: cell-based; settings: Mus musculus, HT-22, 500 nM erastin, 16 hours
# Protocol: as §1, §2
SMILES,prevention of RSL3-induced morphological deteriorations (HT22 cells [1]),EC50 (HT22 cells [2]) [µM],"3-week mortality index (MI), percentage of dead flies (Drosophila melanogaster) [%]",RSL3-induced mtROS production (HT22 cells [3]),EC50 (HT22 cells [4]) [µM],maximal and spare mitochondrial respiration (OCR) (HT22 cells [5]),RSL3-induced increase in intracellular LPO (HT22 cells [6]),EC50 (MC65 cells) [µM],total ATP production rate (HT22 cells [7]; compared to the control),increase in the OXPHOS contribution to ATP production (HT22 cells [7]; relative to the control),EC50 (HT22 cells [8]) [µM]
"CCCCCc1cc(O)c2c(c1)OC(C)(C)c1ccc(C)cc1-2 [CBN, Cannabinol]",effectively prevented,1.89,60.5,significantly suppressed,0.69,partial but significant decrease,significantly suppressed,0.014,slightly but significantly decreased,approximately 15%,2.33
"CCCCCc1cc(O)c2c(c1)OC(C)C=C2 (stereo not drawn) [CP4, 2-methyl-7-pentyl-2H-chromen-5-ol]",,6.63,61.9,,0.83,,,1.6,,,8.08
"CCCCCc1cc(O)c2c(c1)OC(C)(C)C=C2 [CP3, 2,2-dimethyl-7-pentyl-2H-chromen-5-ol]",,2.6,67.3,,0.86,,,0.144,,,3.78
"CCCCCCC(C)(C)c1cc(O)c2c(c1)OC(C)(C)C=C2 [CP1, 2,2-dimethyl-7-(2-methyloctan-2-yl)-2H-chromen-5-ol]",,1.89,49.5,strongest anti-mtROS effect,0.68,strongest effect on the suppression,,0.031,,,2.78
"CCCCCCC(C)(C)c1cc(O)c2c(c1)OC(C)C=C2 (stereo not drawn) [CP2, 2-methyl-7-(2-methyloctan-2-yl)-2H-chromen-5-ol]",,2.89,66.7,,0.92,,,0.097,,,3.36
